Measured values taken from publication PMC10424185, “C-2 Thiophenyl Tryptophan Trimers Inhibit Cellular Entry of SARS-CoV-2 through Interaction with the Viral Spike (S) Protein” (Journal of Medicinal Chemistry, 2023).
Entries after “also recorded” stand apart in the source; their conditions may differ. Where two headings read alike, the source gives them in different places.

Assays:
VSV-SWuhan-Hu-1 = assay: microbe, parasite or virus in culture; type: cell-based, SARS-CoV-2; settings: Vesicular stomatitis virus, VeroE6/TMPRSS2, read-out: IC50 ± SD, pseudotyped VSV carrying S of Wuhan-Hu-1
in vitro [1] = settings: African green monkey
[2] = system: VSV-S (pseudotyped VSV carrying the S protein of Wuhan-Hu-1 SARS-CoV-2); assay: microbe, parasite or virus in culture; type: cell-based; settings: read-out: IC50 (concentration at which virus infection is reduced by 50%), VSV-S in A549-ACE2-TMPRSS2 cells
[3] = system: VSV-SOmicron (S protein of SARS-CoV-2 Omicron BA.1); assay: organism not typed; type: cell-based
[4] = system: VSV-S (pseudotyped VSV carrying the S protein of Wuhan-Hu-1 SARS-CoV-2); assay: microbe, parasite or virus in culture; type: cell-based
in vitro [5] = settings: human
[6] = target: binding of human ACE2 catalytic domain to RBD (Severe acute respiratory syndrome coronavirus 2, UniProt P0DTC2); set-up: species or system SARS-CoV-2 / human
SARS-CoV-2 RBD = SARS-CoV-2 RBD (Severe acute respiratory syndrome coronavirus 2, UniProt P0DTC2); type: binding
[7] = VeroE6/TMPRSS2, read-out: IC50 ± SD, pseudotyped VSV carrying S of Omicron BA.1
[8] = Vesicular stomatitis virus, Vero C1008, read-out: IC50 (concentration at which virus infection is reduced by 50%), VSV-S in Vero E6 cells
[9] = read-out: IC50 (concentration at which virus infection is reduced by 50%), VSV-S in Vero E6 cells

Row | SMILES | IC50 (VSV-SWuhan-Hu-1) [µM] | CC50 (in vitro [1]) [µM] | IC50 ([2]; Vesicular stomatitis virus) [µM] | IC50 [3, 7] [µM] | IC50 [4, 8] [µM] | CC50 (in vitro [5]) [µM] | antiviral activity in the VSV-S assay (in words) [4] | increase of ACE2 concentrations needed for binding to the RBD [6] [fold] | IC50 ([3]; read-out: IC50 ± SD, pseudotyped VSV carrying S of Omicron BA.1) [µM] | IC50 [4, 9] [µM] | effect on thermofluor fluorescence profile / thermal stability of RBD (in words) (SARS-CoV-2 RBD) | primary HTS screening result (in words) [4] | IC50 [2] [µM]
1 | NCCOCCOCCC(=O)NCC(=O)NC(CCC(=O)NC(Cc1c(Sc2ccc([N+](=O)[O-])cc2)[nH]c2ccccc12)C(=O)O)(CCC(=O)NC(Cc1c(Sc2ccc([N+](=O)[O-])cc2)[nH]c2ccccc12)C(=O)O)CCC(=O)NC(Cc1c(Sc2ccc([N+](=O)[O-])cc2)[nH]c2ccccc12)C(=O)O (stereo not shown) [Compound 63] | 0.01 | > 100 | 1.4 ± 1.1 | 25.4 | 0.7 ± 0.9 | > 100 | – | – | – | – | – | – | –
2 | NCC(=O)NC(CCC(=O)NC(Cc1c(C(=O)c2ccc([N+](=O)[O-])cc2)[nH]c2ccccc12)C(=O)O)(CCC(=O)NC(Cc1c(C(=O)c2ccc([N+](=O)[O-])cc2)[nH]c2ccccc12)C(=O)O)CCC(=O)NC(Cc1c(C(=O)c2ccc([N+](=O)[O-])cc2)[nH]c2ccccc12)C(=O)O (stereo not shown) [Compound 50] | – | – | – | – | > 50 | – | antiviral activity is also lost | – | – | – | – | – | –
3 | NCC(=O)NC(CCC(=O)NC(Cc1c(-c2ccc([N+](=O)[O-])cc2)[nH]c2ccccc12)C(=O)O)(CCC(=O)NC(Cc1c(-c2ccc([N+](=O)[O-])cc2)[nH]c2ccccc12)C(=O)O)CCC(=O)NC(Cc1c(-c2ccc([N+](=O)[O-])cc2)[nH]c2ccccc12)C(=O)O (stereo not shown) [Compound 46] | – | – | – | – | > 50 | – | antiviral activity is also lost | – | – | – | – | – | –
4 | CCCCCCCCCC(=O)NCC(=O)NC(CCC(=O)NC(Cc1c(Sc2ccc([N+](=O)[O-])cc2)[nH]c2ccccc12)C(=O)O)(CCC(=O)NC(Cc1c(Sc2ccc([N+](=O)[O-])cc2)[nH]c2ccccc12)C(=O)O)CCC(=O)NC(Cc1c(Sc2ccc([N+](=O)[O-])cc2)[nH]c2ccccc12)C(=O)O (stereo not shown) [Compound 58] | – | > 100 | 9.8 ± 4.3 | – | 21 ± 8.7 | > 100 | – | – | – | – | – | – | –
5 | O=C(CCOCCOCCOCCOCCC(=O)NCC(=O)NC(CCC(=O)NC(Cc1c(Sc2ccc([N+](=O)[O-])cc2)[nH]c2ccccc12)C(=O)O)(CCC(=O)NC(Cc1c(Sc2ccc([N+](=O)[O-])cc2)[nH]c2ccccc12)C(=O)O)CCC(=O)NC(Cc1c(Sc2ccc([N+](=O)[O-])cc2)[nH]c2ccccc12)C(=O)O)NCC(=O)NC(CCC(=O)NC(Cc1c(Sc2ccc([N+](=O)[O-])cc2)[nH]c2ccccc12)C(=O)O)(CCC(=O)NC(Cc1c(Sc2ccc([N+](=O)[O-])cc2)[nH]c2ccccc12)C(=O)O)CCC(=O)NC(Cc1c(Sc2ccc([N+](=O)[O-])cc2)[nH]c2ccccc12)C(=O)O (stereo not shown) [Compound 65] | 0.28 ± 0.23 | > 100 | 15.8 ± 1.5 | 6.24 ± 0.16 | 0.28 ± 0.23 | > 100 | – | ~10 | < 10 | 0.3 ± 0.2 | shift of the curve toward lower temperatures | – | –
6 | NCC(=O)NC(CCC(=O)NC(Cc1c(Sc2ccccc2[N+](=O)[O-])[nH]c2ccccc12)C(=O)O)(CCC(=O)NC(Cc1c(Sc2ccccc2[N+](=O)[O-])[nH]c2ccccc12)C(=O)O)CCC(=O)NC(Cc1c(Sc2ccccc2[N+](=O)[O-])[nH]c2ccccc12)C(=O)O (stereo not shown) [Compound 36] | – | – | – | – | > 100 | – | – | – | – | – | – | – | –
7 | O=C(CCOCC(COCCC(=O)NC(Cc1c(Sc2ccc([N+](=O)[O-])cc2)[nH]c2ccccc12)C(=O)O)(COCCC(=O)NC(Cc1c(Sc2ccc([N+](=O)[O-])cc2)[nH]c2ccccc12)C(=O)O)COCCC(=O)NC(Cc1c(Sc2ccc([N+](=O)[O-])cc2)[nH]c2ccccc12)C(=O)O)NC(Cc1c(Sc2ccc([N+](=O)[O-])cc2)[nH]c2ccccc12)C(=O)O (stereo not shown) [Compound 1] | – | > 100 | 18.5 ± 3.5 | – | 21.4 ± 9.45 | > 100 | – | – | – | 21.4 ± 9.5 | – | significant antiviral activity in the absence of cytotoxicity | –
8 | NCC(=O)NC(CCC(=O)NC(Cc1c(Sc2ccc(F)cc2)[nH]c2ccccc12)C(=O)O)(CCC(=O)NC(Cc1c(Sc2ccc(F)cc2)[nH]c2ccccc12)C(=O)O)CCC(=O)NC(Cc1c(Sc2ccc(F)cc2)[nH]c2ccccc12)C(=O)O (stereo not shown) [Compound 40] | – | > 100 | 46.9 ± 17.5 | – | 33 ± 1.3 | > 100 | – | – | – | – | – | – | –
9 | NCC(=O)NC(CCC(=O)NC(Cc1c(Sc2cccc([N+](=O)[O-])c2)[nH]c2ccccc12)C(=O)O)(CCC(=O)NC(Cc1c(Sc2cccc([N+](=O)[O-])c2)[nH]c2ccccc12)C(=O)O)CCC(=O)NC(Cc1c(Sc2cccc([N+](=O)[O-])c2)[nH]c2ccccc12)C(=O)O (stereo not shown) [Compound 37] | – | > 100 | 8.6 ± 4.7 | – | 37.1 ± 15.9 | > 100 | – | – | – | – | – | – | –
10 | NCC(=O)NC(CCC(=O)NC(Cc1c(Sc2ccc(C(F)(F)F)cc2)[nH]c2ccccc12)C(=O)O)(CCC(=O)NC(Cc1c(Sc2ccc(C(F)(F)F)cc2)[nH]c2ccccc12)C(=O)O)CCC(=O)NC(Cc1c(Sc2ccc(C(F)(F)F)cc2)[nH]c2ccccc12)C(=O)O (stereo not shown) [Compound 38] | – | > 100 | 11.6 ± 4.8 | – | 27.6 ± 12.6 | > 100 | – | – | – | – | shift of the curve toward lower temperatures | – | –
11 | CCCCCCCCCCCC(=O)NCC(=O)NC(CCC(=O)NC(Cc1c(Sc2ccc([N+](=O)[O-])cc2)[nH]c2ccccc12)C(=O)O)(CCC(=O)NC(Cc1c(Sc2ccc([N+](=O)[O-])cc2)[nH]c2ccccc12)C(=O)O)CCC(=O)NC(Cc1c(Sc2ccc([N+](=O)[O-])cc2)[nH]c2ccccc12)C(=O)O (stereo not shown) [Compound 59] | – | > 100 | 44.4 ± 23.4 | – | 30.3 ± 5.3 | > 100 | – | – | – | – | – | – | –
12 | CCCCCCCC(=O)NCC(=O)NC(CCC(=O)NC(Cc1c(Sc2ccc([N+](=O)[O-])cc2)[nH]c2ccccc12)C(=O)O)(CCC(=O)NC(Cc1c(Sc2ccc([N+](=O)[O-])cc2)[nH]c2ccccc12)C(=O)O)CCC(=O)NC(Cc1c(Sc2ccc([N+](=O)[O-])cc2)[nH]c2ccccc12)C(=O)O (stereo not shown) [Compound 57] | – | > 100 | 11.1 ± 5 | – | 23.5 ± 3.8 | > 100 | – | – | – | – | shift of the curve toward lower temperatures | – | –
13 | CC(=O)c1ccc(Sc2[nH]c3ccccc3c2CC(NC(=O)CCC(CCC(=O)NC(Cc2c(Sc3ccc(C(C)=O)cc3)[nH]c3ccccc23)C(=O)O)(CCC(=O)NC(Cc2c(Sc3ccc(C(C)=O)cc3)[nH]c3ccccc23)C(=O)O)NC(=O)CN)C(=O)O)cc1 (stereo not shown) [Compound 41] | – | > 100 | ~2 | – | ~2 | > 100 | – | – | – | 3 ± 1.9 | shift of the curve toward lower temperatures; also recorded: thermally destabilized the RBD | – | 2.3 ± 1.7
14 | O=C(CCC(CCC(=O)NC(Cc1c(Sc2ccc([N+](=O)[O-])cc2)[nH]c2ccccc12)C(=O)O)(CCC(=O)NC(Cc1c(Sc2ccc([N+](=O)[O-])cc2)[nH]c2ccccc12)C(=O)O)[N+](=O)[O-])NC(Cc1c(Sc2ccc([N+](=O)[O-])cc2)[nH]c2ccccc12)C(=O)O (stereo not shown) [Compound 3] | – | > 100 | – | – | 32.9 ± 4.48 | – | – | – | – | 32.9 ± 4.5 | – | effective | –
15 | N#Cc1ccc(Sc2[nH]c3ccccc3c2CC(NC(=O)CCC(CCC(=O)NC(Cc2c(Sc3ccc(C#N)cc3)[nH]c3ccccc23)C(=O)O)(CCC(=O)NC(Cc2c(Sc3ccc(C#N)cc3)[nH]c3ccccc23)C(=O)O)NC(=O)CN)C(=O)O)cc1 (stereo not shown) [Compound 39] | – | > 100 | 34.9 ± 8.7 | – | 33.6 ± 7.2 | > 100 | – | – | – | – | – | – | –
16 | O=C(O)CCCCC(=O)NCC(=O)NC(CCC(=O)NC(Cc1c(Sc2ccc([N+](=O)[O-])cc2)[nH]c2ccccc12)C(=O)O)(CCC(=O)NC(Cc1c(Sc2ccc([N+](=O)[O-])cc2)[nH]c2ccccc12)C(=O)O)CCC(=O)NC(Cc1c(Sc2ccc([N+](=O)[O-])cc2)[nH]c2ccccc12)C(=O)O (stereo not shown) [Compound 61] | – | > 100 | ~2 | – | ~2 | > 100 | – | – | – | 2.1 ± 1.5 | shift of the curve toward lower temperatures | – | 2.3 ± 0.8
17 | CCCCCC(=O)NCC(=O)NC(CCC(=O)NC(Cc1c(Sc2ccc([N+](=O)[O-])cc2)[nH]c2ccccc12)C(=O)O)(CCC(=O)NC(Cc1c(Sc2ccc([N+](=O)[O-])cc2)[nH]c2ccccc12)C(=O)O)CCC(=O)NC(Cc1c(Sc2ccc([N+](=O)[O-])cc2)[nH]c2ccccc12)C(=O)O (stereo not shown) [Compound 56] | – | > 100 | 8.3 ± 1.1 | – | 18.9 ± 6.8 | > 100 | – | – | – | – | – | – | –
